Patent EP4255430B1, “8-HYDROX[…] PROTEASE INHIBITORS FOR USE IN THE PREVENTION AND/OR TREATMENT OF A CORONA VIRUS DISEASE” (Univerza v Ljubljani, priority 2020, dated 2022)

Tested on: SARS-CoV-2
Assay: High Content Assay: antiviral activity against SARS-CoV-2 in infected Huh7-hACE2 cells (Spike immunofluorescence, infection ratio)
Details: for EC50 / EC90: Huh7-hACE2 cells, 0.1 MOI, 20 h; for % of inhibition reached (maximal), based on infection ratio values: within tested concentration range, normalized to 50 µM hydroxychloroquine = 100%; for activity against SARS-CoV-2 in Huh7-hACE2 cells (comparison between inhibitors): qualitative ranking; for EC90: read-out: EC90, the effective concentration capable to inhibit 90% of infection, follows the pre-treated values
[1] = treatment condition not restated in the sentence (follows the pre-treated values)
[2] = pre-treated conditions (compounds added 3 hours prior infection)

Row | SMILES | EC50 [1] | % of inhibition reached (maximal), based on infection ratio values | activity against SARS-CoV-2 in Huh7-hACE2 cells (comparison between inhibitors) | EC90 | EC50 [2]
1 | CC(C)C[C@H](NC(=O)[C@H]1O[C@@H]1C(=O)O)C(=O)NCCCCN=C(N)N (relative stereo) [Compound E64] | higher concentrations | < 100% |  |  | 
2 | CCOC(=O)[C@H]1O[C@@H]1C(=O)N[C@@H](CC(C)C)C(=O)NCCC(C)C [Compound E64d, (2S,3S)-trans-Epoxysuccinyl-L-leucylamido-3-methylbutane ethyl ester] |  | < 100% |  |  | 
3 | CC1CCN(Cc2cc([N+](=O)[O-])c3cccnc3c2O)CC1 [Compound 3, 7-[(4-methylpiperidin-1yl)methyl]-5-nitroquinolin-8-ol] |  | 100% | stronger effect than CLIK 148, but weaker than Nitroxoline and Compound 17 | 10 µM | 
4 | O=[N+]([O-])c1ccc(O)c2ncccc12 [Nitroxoline, 5-nitro-8-hydroxyquinoline] |  | 100% | highest activity | 7.9 µM | 1.9 µM
5 | N#CCNCc1cc([N+](=O)[O-])c2cccnc2c1O [Compound 17, 2-{[(8-hydroxy-5-nitroquinoline-7-yl)methyl]amino}-acetonitrile] |  | 100% | highest activity | 3.3 µM | 1.9 µM
6 | CN(C)C(=O)[C@H](Cc1ccccc1)NC(=O)C1OC1C(=O)NCCc1ccccn1 (stereo in doubt) [CLIK 148, N-{L-3-trans-[2-(pyridin-2-yl)ethylcarbamoyl]-oxirane-2-carbonyl}-L-Phe dimethylamide] | higher concentrations | < 100% |  |  | 
